# Like-named read-outs stand apart in the source and are kept apart here.
# Columns and labels:
# Type in all cases: cell-based
# [1] = system: Aspergillus; assay: Susceptibility assay of antifungals with BromAc (Example 4); details: antifungal in combination with BromAc (5 mg/ml Acetylcysteine+12.5 μg/ml Bromelain) vs alone
# Protocol: (§1) The in vitro antifungal properties of Bromelain, Acetylcysteine, BromAc, Amphotericin B, Isavuconazole, Fluconazole and Posaconazole were determined using a broth microdilution method in round bottom 96 well plates in accordance with standard procedures defined by the Clinical Laboratory Standards Institute (CLSI).
# (§2) Unless otherwise described, fungal cultures were grown on potato dextrose agar plates at 35° C. until mature (appearance of conidia) and used to prepare suspensions in sterile water. Suspensions were diluted in RPMI 1:60. These suspensions were then added in equal volume to solutions containing the candidate species described above and incubated at 35° C. for 24 hr. Plates were then analysed for fungal growth inhibition and MIC values determined.
# (§3) BromAc (5 mg/ml Acetylcysteine+12.5 μg/ml Bromelain) was used in combination with Amphotericin B, Isavuconazole, Posaconazole and Fluconazole. The MIC values of these four antifungal agents against the fungus described below were calculated and compared with their corresponding MIC values in the presence of BromAc, using the standard susceptibility assays described above.
# (§4) The fungal strains set out in Table 2, all of which were sourced from a range of clinical isolates from Australian hospitals, were used in these experiments to gain a further understanding of the efficacy of BromAc in combination with Amphotericin B, Isavuconazole, Posaconazole and Fluconazole.
# [2] = system: Candida kruseii; assay: as above; details: antifungal in combination with BromAc (5 mg/ml Acetylcysteine+12.5 μg/ml Bromelain) vs alone
# Protocol: as §1, §2, §3, §4
# [3] = system: Candida parapslosis; assay: as above
# Protocol: as §1, §2, §3, §4
# [4] = system: Candida tropicalis; assay: as above
# Protocol: as §1, §2, §3, §4
# [5] = system: Cryptococcus; assay: as above
# Protocol: as §1, §2, §3, §4
# [6] = system: Candida glabrata; assay: as above
# Protocol: as §1, §2, §3, §4
# [7] = system: Fusarium; assay: as above; details: antifungal in combination with BromAc (5 mg/ml Acetylcysteine+12.5 μg/ml Bromelain) vs alone
# Protocol: as §1, §2, §3, §4
# [8] = system: Candida Krusei (ATCC strain 6258); assay: Broth dilution susceptibility test, MIC and percent growth (Example 6)
# Protocol: A. Preparation of inoculum: • 1. Candida glabrata was grown on Sabouraud dextrose agar (SDA) at 37° C. for 24-48 hrs. • 2. Following this, 5 colonies of 1 mm diameter were picked and suspended in 5 mL sterile saline (0.9% saline) and vortexed for 15 seconds. • 3. Working suspension is prepared as a 1:100 dilution from stock suspension with RPMI 1640 culture medium. • 4. The cell density is adjusted with a spectrophotometer to the transmittance produced by a 0.5 McFarland standard (0.08 to 0.1) OD at 625 nm wavelength.
# • 1. For Bromelain, a stock concentration of 1 mg/ml Bromelain solution was prepared in RPMI media and diluted to test concentrations of 62.4, 31.2, 15.6 and 7.8 μg/ml in RPMI 1640 media. • 2. Acetylcysteine stock concentration is 200 mg/ml, diluted to 40, 20, 10, and 5 mg/ml concentrations in RPMI 1640 medium. • 3. These concentrations are prepared at 2× of the required concentrations in the final assay plate.
# Antifungal stock concentrations are as follows— • 1. Amphotericin B, Stock concentration: 250 μg/ml in water. • 2. Posaconazole, Original concentration: 300 mg in 16.7 ml, Working stock concentration: 1 mg/ml in DMSO. • 3. Fluconazole, Original concentration: 100 mg in 50 ml, Working stock concentration: 1 mg/ml in DMSO. • 4. The final concentration was prepared in RPMI 1640 media and concentrations range was 0.01-0.5 μg/mL for amphotericin B, 0.01-2 μg/mL for posaconazole and 0.01-64 μg/mL for fluconazole. • 5. These concentrations were prepared at 2× of the required concentrations in the final assay plate.
# • 1. Wells of the 96-well plates were inoculated with appropriate concentrations and volumes of drugs. • 2. Sterility control and growth controls are included in each plate. • 3. Each 96-well plate (except the control wells) contains 100 μL of double strength (twice the final antifungal drug) concentrations. • 4. 100 μL of the fungal suspension is added to 96-well plates (except the sterility control wells). • 5. The growth control wells contained 100 μL of sterile drug-free medium and 100 μL of inoculum suspension, while the sterility control wells contained 200 μl of sterile drug-free medium. • 6. Plates are then incubated at 37° C. and read at 625,430, and 530 nm wavelengths. • 7. Data from 24 hours and absorbance at 625 nm were used for analysis.
# These experiments were conducted to determine the effect of BromAc alone and in combination with existing antifungal drugs against Candida Krusei (ATCC strain 6258).
# The method used in these experiments is essentially the same as that described above in Example 5.
# [9] = system: Rhizopus arrhizus; assay: Chequerboard broth microdilution antifungal susceptibility testing (MIC)
# Protocol: as §2, with “Suspensions were diluted in RPMI 1:60.” left out, “determined. […] [MICA (combined)/MICA]+[MICB (combined)/MICB] MICA (combined) is the MIC of drug A when both drugs (i.e. drug A and drug B) are present and MICA is the MIC of drug A used in isolation. Similarly, MICB (combined) is the MIC of drug B when both drugs are present and MICB is the MIC of drug B used in isolation.” for “determined.”
# [10] = system: Rhizopus microsporus; assay: as above
# Protocol: as §2, with “Suspensions were diluted in RPMI 1:60.” left out, “determined. […] [MICA (combined)/MICA]+[MICB (combined)/MICB] MICA (combined) is the MIC of drug A when both drugs (i.e. drug A and drug B) are present and MICA is the MIC of drug A used in isolation. Similarly, MICB (combined) is the MIC of drug B when both drugs are present and MICB is the MIC of drug B used in isolation.” for “determined.”
# [11] = antifungal in combination with BromAc (5 mg/ml Acetylcysteine+12.5 μg/ml Bromelain) vs alone
compound,measurement,setting,value
C[C@@H]1[C@H](O)[C@@H](C)/C=C/C=C/C=C/C=C/C=C/C=C/C=C/[C@H](O[C@@H]2O[C@H](C)[C@@H](O)[C@H](N)[C@@H]2O)C[C@@H]2O[C@](O)(C[C@@H](O)C[C@@H](O)[C@H](O)CC[C@@H](O)C[C@@H](O)CC(=O)O[C@H]1C)C[C@H](O)[C@H]2C(=O)O [Amphotericin B],Observed inhibitory effect,[1],No effect
same,Observed inhibitory effect,[2],Strong (Strong = 5-10x (or greater) inhibitory effect)
same,increase in sensitivity,"[3]; Candida parapsilosis, antifungal with BromAc",~10 ×
same,Observed inhibitory effect,"[3]; Candida parapslosis, antifungal in combination with BromAc (5 mg/ml Acetylcysteine+12.5 μg/ml Bromelain) vs alone",Strong (Strong = 5-10x (or greater) inhibitory effect)
same,Observed inhibitory effect,[4]; [11],Strong (Strong = 5-10x (or greater) inhibitory effect)
same,isolates with more than a 10× increase in sensitivity,[4]; antifungal with BromAc,4 of 5
same,Observed inhibitory effect,[5]; [11],Strong (Strong = 5-10x (or greater) inhibitory effect)
same,isolates with more than 10× increase,[5]; antifungal with BromAc,5 of 5
same,Observed inhibitory effect,[6]; [11],Strong (Strong = 5-10x (or greater) inhibitory effect)
same,isolates with more than a 10× increase in sensitivity,[6]; antifungal with BromAc,5 of 5
same,Observed inhibitory effect,[7],No effect
same,MIC,"[8]; Pichia kudriavzevii, ATCC6258, close to 90% inhibition",1 µg/mL
same,effect at lower doses / concentrations compared to GC (in words),[8]; below the MIC (Posaconazole 0.03 μg/ml),significant inhibition
same,isolates with 10× increase,"[9]; Rhizopus Arrhizus, antifungal with BromAc",8 of 8
same,MIC,"[9]; Rhizopus arrhizus, Rhizopus arrhizus (80-21-015-4777), drug alone, read-out: MIC",0.5 µg/mL
same,MIC,"[9]; Rhizopus arrhizus, eight R. arrhizus strains, read-out: MIC, average over the strains",0.6 µg/mL
same,MIC,"[9]; Rhizopus arrhizus, isolate R. archizus 1, BromAc at constant concentration where combined, read-out: MIC",1 µg/mL
same,MIC,"[9]; Rhizopus arrhizus, isolate R. archizus 2, BromAc at constant concentration where combined, read-out: MIC",0.5 µg/mL
same,MIC,"[9]; Rhizopus arrhizus, isolate R. archizus 3, BromAc at constant concentration where combined, read-out: MIC",1 µg/mL
same,MIC,"[9]; Rhizopus arrhizus, isolate R. archizus 8, BromAc at constant concentration where combined, read-out: MIC",0.5 µg/mL
same,MIC,"[9]; Rhizopus arrhizus, isolate R. arrhizus 4, BromAc at constant concentration where combined, read-out: MIC",0.5 µg/mL
same,MIC,"[9]; Rhizopus arrhizus, isolate R. arrhizus 5, BromAc at constant concentration where combined, read-out: MIC",0.5 µg/mL
same,MIC,"[9]; Rhizopus arrhizus, isolate R. arrhizus 6, BromAc at constant concentration where combined, read-out: MIC",1 µg/mL
same,MIC,"[9]; Rhizopus arrhizus, isolate R. arrhizus 7, BromAc at constant concentration where combined, read-out: MIC",0.5 µg/mL
same,Observed inhibitory effect,"[9]; Rhizopus arrhizus, antifungal in combination with BromAc (5 mg/ml Acetylcysteine+12.5 μg/ml Bromelain) vs alone",Strong (Strong = 5-10x (or greater) inhibitory effect)
same,effect on fungal culture (in words),[9]; alone at 0.25 mg/L,not effective
same,Amphotericin concentration at which complete inhibition was seen,[9]; combined with 25 μg/mL of bromelain,0.3 mg/L
same,"MICs, range over the strains",[9]; eight R. arrhizus strains,0.25 to 1 µg/mL
same,isolates with more than 10× increase,"[10]; Rhizopus microspores, antifungal with BromAc",9 of 10
same,MIC,"[10]; Rhizopus microsporus, Rhizopus microsporus (80-21-006-5340), drug alone, read-out: MIC",0.5 µg/mL
same,MIC,"[10]; Rhizopus microsporus, eight R. microsporus strains, read-out: MIC, average over the strains",0.7 µg/mL
same,MIC,"[10]; Rhizopus microsporus, isolate R. microsporus 1, BromAc at constant concentration where combined, read-out: MIC",1 µg/mL
same,MIC,"[10]; Rhizopus microsporus, isolate R. microsporus 2, BromAc at constant concentration where combined, read-out: MIC",1 µg/mL
same,MIC,"[10]; Rhizopus microsporus, isolate R. microsporus 3, BromAc at constant concentration where combined, read-out: MIC",0.25 µg/mL
same,MIC,"[10]; Rhizopus microsporus, isolate R. microsporus 4, BromAc at constant concentration where combined, read-out: MIC",0.5 µg/mL
same,MIC,"[10]; Rhizopus microsporus, isolate R. microsporus 5, BromAc at constant concentration where combined, read-out: MIC",0.5 µg/mL
same,MIC,"[10]; Rhizopus microsporus, isolate R. microsporus 6, BromAc at constant concentration where combined, read-out: MIC",0.5 µg/mL
same,MIC,"[10]; Rhizopus microsporus, isolate R. microsporus 7, BromAc at constant concentration where combined, read-out: MIC",0.5 µg/mL
same,MIC,"[10]; Rhizopus microsporus, isolate R. microsporus 8, BromAc at constant concentration where combined, read-out: MIC",0.5 µg/mL
same,Observed inhibitory effect,"[10]; Rhizopus microsporus, antifungal in combination with BromAc (5 mg/ml Acetylcysteine+12.5 μg/ml Bromelain) vs alone",Strong (Strong = 5-10x (or greater) inhibitory effect)
same,effect on fungal culture (in words),[10]; alone at 0.25 mg/L,not effective
same,"MICs, range over the strains",[10]; eight R. microsporus strains,0.5 to 1 µg/mL

# — patent US20260207720A1, “COMPOSITIONS AND METHODS FOR TREATING FUNGAL INFECTIONS” (MUCPharm Pty Ltd, priority 2022, published 2026)
